According to PMC12040169 (PLOS Biology, 2025):

Test: in vitro
Conditions: human, hela cells, % viability
For `O=C(Cn1nnc(-c2ccc(CN3CCOCC3)cc2)n1)Nc1ccc(Br)cc1` [CBK127364], the viability at 28.5 h, 10 µM was 94.1%.
`CCc1cccc2c(CN3CCc4nc(C)[nH]c(=O)c4C3)c[nH]c12` [CBK283931] showed a viability at 28.5 h, 10 µM of 94.6%.
Compound `c1coc(-c2nccnc2NCCCN2CCOCC2)c1` [CBK038086] has a viability at 28.5 h, 10 µM of 96.8%.
`C[C@@H]1C(=O)Nc2ccc(F)cc2N1C(=O)N1CCCC1` [CBK007936] gave a viability at 28.5 h, 10 µM of 96%.
Work on `CCOC(=O)N1CCN(C(=O)c2oc3ccccc3c2C)CC1` [CBK023696] yielded a viability at 28.5 h, 10 µM of 92.4%.
Work on `O=C(/C=C/c1ccco1)Nc1cccc2c(NC(=O)/C=C/c3ccco3)cccc12` [CBK264974] yielded a viability at 28.5 h, 10 µM of 99.7%.
With `Cc1cc(=O)oc2cc(Sc3sccc3[N+](=O)[O-])ccc12` [CBK002936] the viability at 28.5 h, 10 µM was 90.5%.
For `NC(=O)c1cccc(-c2nccnc2N2CCN(CCO)CC2)c1` [CBK036726], the viability at 28.5 h, 10 µM was 96.9%.
For `NC(=O)CN1CCCN(c2nccc(OCC3COc4ccccc4O3)n2)CC1` (stereo not drawn) [CBK084041], the viability at 28.5 h, 10 µM was 115%.
`CCCCOc1cccc(C(=O)Nc2ccc(-c3nc4ccccc4o3)c(O)c2)c1` [CBK263435] showed a viability at 28.5 h, 10 µM of 101%.
With `O=C(NCCc1c[nH]c2ccc(Cl)cc12)c1cc(F)c(Cl)cc1F` [CBK159763] the viability at 28.5 h, 10 µM was 93.6%.
Work on `CCN(Cc1ccncc1)C(=O)NCCN1CCOCC1` [CBK145055] yielded a viability at 28.5 h, 10 µM of 92.1%.
`O=[N+]([O-])c1cc([N+](=O)[O-])c2cccnc2c1NNc1nncc2ccccc12` [CBK110409] showed a viability at 28.5 h, 10 µM of 85.1%.
In the case of `CCN1CC2(CCN(CC3CC3)CC2)c2ccccc21` [CBK136987], the viability at 28.5 h, 10 µM is reported as 92.6%.
Work on `CN(C)CCN(C)c1cc(-c2cccc(Br)c2)nc2ccnn12` [CBK037140] yielded a viability at 28.5 h, 10 µM of 106%.
`CC(=O)Nc1ccc(NC(=O)c2cc(-c3ccc(Cl)cc3Cl)nc3ccccc23)cc1` [CBK265080] showed a viability at 28.5 h, 10 µM of 80.8%.
With `O=C(Nc1cccc(Cl)c1)Nc1ccccc1NC(=O)Nc1cccc(Cl)c1` [CBK267624] the viability at 28.5 h, 10 µM was 92.4%.
Compound `C[C@@H](Nc1cncc(-c2ccc(F)cc2F)n1)c1ccccc1` [CBK065676] has a viability at 28.5 h, 10 µM of 87%.
With `N#CCCCN1CCC(Oc2nccnc2OCc2cccc(Br)c2)CC1` [CBK153631] the viability at 28.5 h, 10 µM was 99.1%.
In the case of `CC(=O)Nc1ccc(-c2cncc(NC3CCC(O)CC3)n2)cc1` (stereo not drawn) [CBK065886], the viability at 28.5 h, 10 µM is reported as 93.9%.
For `Cc1ccc(N2CCCC2=O)cc1S(=O)(=O)NC1C2CCCCC21` (stereo not drawn) [CBK282840], the viability at 28.5 h, 10 µM was 69%.
In the case of `COc1ccc(NC(=O)CSc2cnn[nH]2)c(OC)c1` [CBK269969], the viability at 28.5 h, 10 µM is reported as 76.7%.
Work on `Cc1nn(C)cc1CN(Cc1cccc(F)c1)CC1CCCO1` (stereo not drawn) [CBK283013] yielded a viability at 28.5 h, 10 µM of 100%.
`O=S(=O)(Nc1cnc2ccccc2c1)c1cccs1` [CBK043694] showed a viability at 28.5 h, 10 µM of 83%.
Compound `CCc1c(C)nc2c(C)cccc2c1SCC(=O)O` [CBK263554] has a viability at 28.5 h, 10 µM of 87.6%.
`Cc1ccc(S(=O)(=O)N2CCOCC2)cc1S(=O)(=O)N1CCOCC1` [CBK261733] showed a viability at 28.5 h, 10 µM of 90.8%.
In the case of `CCCC(=O)Nc1ccccc1NC(=O)c1cccc([N+](=O)[O-])c1C` [CBK267398], the viability at 28.5 h, 10 µM is reported as 92.1%.
In the case of `CC1CN(S(=O)(=O)C(C)C)CCC1NCc1ccncc1` (stereo not drawn) [CBK304870], the viability at 28.5 h, 10 µM is reported as 89.6%.
`CCOC(=O)N1CCC(NC(=O)N(CCC#N)C2CCCCC2)CC1` [CBK156384] gave a viability at 28.5 h, 10 µM of 90.9%.
For `CN(CC(=O)Nc1cccc(Cl)c1)S(=O)(=O)c1ccc2ccccc2c1` [CBK266746], the viability at 28.5 h, 10 µM was 105%.
`Cc1ccc2c(N)c(C(=O)c3ccccc3)sc2n1` [CBK115347] gave a viability at 28.5 h, 10 µM of 88.1%.
Work on `CCSc1nnc(-c2cccc(C)c2)n1CC1CCCCC1` [CBK085419] yielded a viability at 28.5 h, 10 µM of 96.3%.
Work on `COc1ccc(-c2cc(C(=O)NCc3nc4ccccc4[nH]3)cnc2-c2ccccc2)cn1` [CBK037579] yielded a viability at 28.5 h, 10 µM of 99.6%.
Compound `O=C(NC1CC2CCC(C1)N2Cc1ccccc1)c1cccc(Cl)c1` (stereo not drawn) [CBK116291] has a viability at 28.5 h, 10 µM of 95.4%.

Same assay, conditions: human, hela cells, % viability, bulk resorufin, single well
Work on `CCOC(=O)C1(c2ccccc2)CCN(C(=O)c2ccc3nc[nH]c3c2)CC1` [CBK132208] yielded a viability at 28.5 h, 10 µM of 103%.
Work on `CC(=O)N1CCC2(CC1)OCc1cc(-c3ccc(CCC(=O)O)cc3)ccc1O2` [CBK060971] yielded a viability at 28.5 h, 10 µM of 90.3%.
